From patent EP0007672A1, “Isocyanoalkenes, process and useful intermediates for their preparation, pharmaceutical and fungicidal preparations containing those isocyanoalkenes and the use of the fungicidal preparations in agriculture” (GIST-BROCADES N.V., priority 1978, dated 1980)
In brackets after ≈: the same amount, converted by molar mass. Like-named read-outs stand apart in the source and are kept apart here.

How the values were obtained:
Assay in all cases: MIC (Minimum Inhibitory Concentration)
Assay type in all cases: cell-based
Candida albicans = system: Candida albicans
Pasteurella multocida = conditions: read-out: MIC values
[1] = system: Streptococcus haemolyticus; conditions: read-out: MIC values
Trichophyton equinum = system: Trichophyton equinum
[2] = system: Trichophyton mentagrophytus
Trichophyton quickeaneum = conditions: read-out: MIC values
Trichophyton rubrum = system: Trichophyton rubrum
[3] = system: Trichophyton schoenleinii; conditions: read-out: MIC values
[4] = system: Trichophyton soudanese joyeux; conditions: read-out: MIC values
Trichophyton verrucosum = system: Trichophyton verrucosum
Trichophyton violoceum = conditions: read-out: MIC values
Trichophyton tonsurans = Trichophyton tonsurans 561-50; read-out: MIC values

[C-]#[N+]C(=C1C2CC3CC(C2)CC1C3)S(=O)(=O)c1ccc(C)cc1 [Example 2, a-adamantylidene-a-(4-toluenesulphonyl) methylisocyanide]
MIC (Candida albicans; read-out: MIC values, Candida albicans A 7): 0.8 µg/mL (≈ 2.44 µM)
MIC (Candida albicans; read-out: MIC values, Candida albicans A 3140): 12.5 µg/mL (≈ 38.2 µM)
MIC (Candida albicans; read-out: MIC values, Candida albicans A 3141): > 100 µg/mL
MIC (Candida albicans; read-out: MIC values, Candida albicans A 3142): > 100 µg/mL
MIC (Candida albicans; read-out: MIC values, Candida albicans A 3143): 0.8 µg/mL (≈ 2.44 µM)
MIC (Candida albicans; read-out: MIC values, Candida albicans A 3144): > 100 µg/mL
MIC (Candida albicans; read-out: MIC values, Candida albicans A 3145): > 100 µg/mL
MIC (Candida albicans; read-out: MIC values, Candida albicans A 3165): 50 µg/mL (≈ 153 µM)
MIC (Candida albicans; read-out: MIC values, Candida albicans A 3166): 50 µg/mL (≈ 153 µM)
MIC (Candida albicans; read-out: MIC values, Candida albicans A 3167): 25 µg/mL (≈ 76.3 µM)
MIC (Candida albicans; read-out: MIC values, Candida albicans A 3169): 1.5 µg/mL (≈ 4.58 µM)
MIC (Candida albicans; read-out: MIC values, Candida albicans A 3171): > 100 µg/mL
MIC (Candida albicans; read-out: MIC values, Candida albicans A 3184): 0.8 µg/mL (≈ 2.44 µM)
MIC (Candida albicans; read-out: MIC values, Candida albicans A 3190): 100 µg/mL (≈ 305 µM)
MIC (Candida albicans; read-out: MIC values, Candida albicans A 3192): 1.5 µg/mL (≈ 4.58 µM)
MIC (Candida albicans; read-out: MIC values, Candida albicans A 3194): > 100 µg/mL
MIC (Candida albicans; read-out: MIC values, Candida albicans A 3196): > 100 µg/mL
MIC (Pasteurella multocida; Pasteurella multocida): > 100 µg/mL
MIC ([1]; Streptococcus): 50 µg/mL (≈ 153 µM)
MIC (Trichophyton equinum; read-out: MIC values, Trichophyton equinum 182-76): 50 µg/mL (≈ 153 µM)
MIC (Trichophyton equinum; read-out: MIC values, Trichophyton equinum 441-51): 25 µg/mL (≈ 76.3 µM)
MIC (Trichophyton equinum; read-out: MIC values, Trichophyton equinum 856-71): > 100 µg/mL
MIC ([2]; read-out: MIC values, Trichophyton mentagrophytus 367-68): > 100 µg/mL
MIC ([2]; read-out: MIC values, Trichophyton mentagrophytus 421-67): 50 µg/mL (≈ 153 µM)
MIC ([2]; read-out: MIC values, Trichophyton mentagrophytus A 3252): > 100 µg/mL
MIC ([2]; read-out: MIC values, Trichophyton mentagrophytus R 177): 100 µg/mL (≈ 305 µM)
MIC ([2]; read-out: MIC values, Trichophyton mentagrophytus R 178): > 100 µg/mL
MIC ([2]; read-out: MIC values, Trichophyton mentagrophytus RRL 305): 50 µg/mL (≈ 153 µM)
MIC (Trichophyton quickeaneum; Trichophyton): > 100 µg/mL
MIC (Trichophyton rubrum; read-out: MIC values, Trichophyton rubrum 218-65): < 0.05 µg/mL
MIC (Trichophyton rubrum; read-out: MIC values, Trichophyton rubrum 494-62): > 100 µg/mL
MIC (Trichophyton rubrum; read-out: MIC values, Trichophyton rubrum A 810): 50 µg/mL (≈ 153 µM)
MIC ([3]; Trichophyton schoenleinii): 25 µg/mL (≈ 76.3 µM)
MIC ([4]; Trichophyton): 50 µg/mL (≈ 153 µM)
MIC (Trichophyton verrucosum; read-out: MIC values, Trichophyton verrucosum 134-66): 25 µg/mL (≈ 76.3 µM)
MIC (Trichophyton verrucosum; read-out: MIC values, Trichophyton verrucosum A 2922): < 0.05 µg/mL
MIC (Trichophyton violoceum; Trichophyton): 50 µg/mL (≈ 153 µM)

[C-]#[N+]C(=Cc1ccc(Cl)cc1)S(=O)(=O)c1ccc(C)cc1 [Example 11, 1-isocyanv-2-(4-chlorophenyl)-1-(4-toluenesulphonyl)-ethene]
MIC (Candida albicans; Candida albicans A 7, read-out: MIC values): 0.8 µg/mL (≈ 2.52 µM)
MIC (Candida albicans; Candida albicans A 3140, read-out: MIC values): 0.4 µg/mL (≈ 1.26 µM)
MIC (Candida albicans; Candida albicans A 3141, read-out: MIC values): 0.8 µg/mL (≈ 2.52 µM)
MIC (Candida albicans; Candida albicans A 3142, read-out: MIC values): 1.5 µg/mL (≈ 4.72 µM)
MIC (Candida albicans; Candida albicans A 3143, read-out: MIC values): 1.5 µg/mL (≈ 4.72 µM)
MIC (Candida albicans; Candida albicans A 3144, read-out: MIC values): 1.5 µg/mL (≈ 4.72 µM)
MIC (Candida albicans; Candida albicans A 3145, read-out: MIC values): 1.5 µg/mL (≈ 4.72 µM)
MIC (Candida albicans; Candida albicans A 3165, read-out: MIC values): 1.5 µg/mL (≈ 4.72 µM)
MIC (Candida albicans; Candida albicans A 3166, read-out: MIC values): 1.5 µg/mL (≈ 4.72 µM)
MIC (Candida albicans; Candida albicans A 3167, read-out: MIC values): 1.5 µg/mL (≈ 4.72 µM)
MIC (Candida albicans; Candida albicans A 3168, read-out: MIC values): 0.8 µg/mL (≈ 2.52 µM)
MIC (Candida albicans; Candida albicans A 3169, read-out: MIC values): 1.5 µg/mL (≈ 4.72 µM)
MIC (Candida albicans; Candida albicans A 3171, read-out: MIC values): 1.5 µg/mL (≈ 4.72 µM)
MIC (Candida albicans; Candida albicans A 3184, read-out: MIC values): 1.5 µg/mL (≈ 4.72 µM)
MIC (Candida albicans; Candida albicans A 3190, read-out: MIC values): 1.5 µg/mL (≈ 4.72 µM)
MIC (Candida albicans; Candida albicans A 3191, read-out: MIC values): 1.5 µg/mL (≈ 4.72 µM)
MIC (Candida albicans; Candida albicans A 3192, read-out: MIC values): 1.5 µg/mL (≈ 4.72 µM)
MIC (Candida albicans; Candida albicans A 3194, read-out: MIC values): 1.5 µg/mL (≈ 4.72 µM)
MIC (Candida albicans; Candida albicans A 3196, read-out: MIC values): 3 µg/mL (≈ 9.44 µM)
MIC (Pasteurella multocida; Pasteurella multocida A 723): 6 µg/mL (≈ 18.9 µM)
MIC ([1]; Streptococcus haemolyticus A 1088): 3 µg/mL (≈ 9.44 µM)
MIC (Trichophyton equinum; Trichophyton equinum 182-76, read-out: MIC values): 3 µg/mL (≈ 9.44 µM)
MIC (Trichophyton equinum; Trichophyton equinum 441-51, read-out: MIC values): 0.4 µg/mL (≈ 1.26 µM)
MIC (Trichophyton equinum; Trichophyton equinum 856-71, read-out: MIC values): < 0.05 µg/mL
MIC ([2]; Trichophyton mentagrophytus 367-68, read-out: MIC values): 1.5 µg/mL (≈ 4.72 µM)
MIC ([2]; Trichophyton mentagrophytus 421-67, read-out: MIC values): 6 µg/mL (≈ 18.9 µM)
MIC ([2]; Trichophyton mentagrophytus A 3252, read-out: MIC values): 1.5 µg/mL (≈ 4.72 µM)
MIC ([2]; Trichophyton mentagrophytus R 177, read-out: MIC values): 3 µg/mL (≈ 9.44 µM)
MIC ([2]; Trichophyton mentagrophytus R 178, read-out: MIC values): > 100 µg/mL
MIC ([2]; Trichophyton mentagrophytus RRL 305, read-out: MIC values): 1.5 µg/mL (≈ 4.72 µM)
MIC (Trichophyton quickeaneum; Trichophyton quickeaneum A 2040): 1.5 µg/mL (≈ 4.72 µM)
MIC (Trichophyton rubrum; Trichophyton rubrum 218-65, read-out: MIC values): 1.5 µg/mL (≈ 4.72 µM)
MIC (Trichophyton rubrum; Trichophyton rubrum 494-62, read-out: MIC values): 1.5 µg/mL (≈ 4.72 µM)
MIC (Trichophyton rubrum; Trichophyton rubrum A 810, read-out: MIC values): 0.8 µg/mL (≈ 2.52 µM)
MIC ([3]; Trichophyton schoenleinii 435-63): 0.4 µg/mL (≈ 1.26 µM)
MIC ([4]; Trichophyton soudanese joyeux 440-63): 6 µg/mL (≈ 18.9 µM)
MIC (Trichophyton tonsurans): 6 µg/mL (≈ 18.9 µM)
MIC (Trichophyton verrucosum; Trichophyton verrucosum 134-66, read-out: MIC values): < 0.05 µg/mL
MIC (Trichophyton verrucosum; Trichophyton verrucosum A 2922, read-out: MIC values): 0.4 µg/mL (≈ 1.26 µM)
MIC (Trichophyton violoceum; Trichophyton violoceum 442-62): 0.1 µg/mL (≈ 0.315 µM)
